Assay results as given in ChEMBL document CHEMBL4028852, “Design of a Chemical Probe for the Bromodomain and Plant Homeodomain Finger-Containing (BRPF) Family of Proteins” (J Med Chem, 2017).
pIC50: −log10 of the molar value.

Experiments:
[1] = target: Bromodomain-containing protein 4 (Homo sapiens, UniProt O60885); experiment: Inhibition of human BRD4 isoform long bromodomain 1 (44 to 168 residues) expressed in Escherichia coli BL21 after 1 hr by BROMOscan assay
[2] = target: T1, Bromodomain-containing protein 1 (Homo sapiens, UniProt O95696); experiment: Inhibition of human BRPF2 (556 to 688 residues) expressed in Escherichia coli BL21 after 1 hr by BROMOscan assay
T1 sequence (O95696 whole entry): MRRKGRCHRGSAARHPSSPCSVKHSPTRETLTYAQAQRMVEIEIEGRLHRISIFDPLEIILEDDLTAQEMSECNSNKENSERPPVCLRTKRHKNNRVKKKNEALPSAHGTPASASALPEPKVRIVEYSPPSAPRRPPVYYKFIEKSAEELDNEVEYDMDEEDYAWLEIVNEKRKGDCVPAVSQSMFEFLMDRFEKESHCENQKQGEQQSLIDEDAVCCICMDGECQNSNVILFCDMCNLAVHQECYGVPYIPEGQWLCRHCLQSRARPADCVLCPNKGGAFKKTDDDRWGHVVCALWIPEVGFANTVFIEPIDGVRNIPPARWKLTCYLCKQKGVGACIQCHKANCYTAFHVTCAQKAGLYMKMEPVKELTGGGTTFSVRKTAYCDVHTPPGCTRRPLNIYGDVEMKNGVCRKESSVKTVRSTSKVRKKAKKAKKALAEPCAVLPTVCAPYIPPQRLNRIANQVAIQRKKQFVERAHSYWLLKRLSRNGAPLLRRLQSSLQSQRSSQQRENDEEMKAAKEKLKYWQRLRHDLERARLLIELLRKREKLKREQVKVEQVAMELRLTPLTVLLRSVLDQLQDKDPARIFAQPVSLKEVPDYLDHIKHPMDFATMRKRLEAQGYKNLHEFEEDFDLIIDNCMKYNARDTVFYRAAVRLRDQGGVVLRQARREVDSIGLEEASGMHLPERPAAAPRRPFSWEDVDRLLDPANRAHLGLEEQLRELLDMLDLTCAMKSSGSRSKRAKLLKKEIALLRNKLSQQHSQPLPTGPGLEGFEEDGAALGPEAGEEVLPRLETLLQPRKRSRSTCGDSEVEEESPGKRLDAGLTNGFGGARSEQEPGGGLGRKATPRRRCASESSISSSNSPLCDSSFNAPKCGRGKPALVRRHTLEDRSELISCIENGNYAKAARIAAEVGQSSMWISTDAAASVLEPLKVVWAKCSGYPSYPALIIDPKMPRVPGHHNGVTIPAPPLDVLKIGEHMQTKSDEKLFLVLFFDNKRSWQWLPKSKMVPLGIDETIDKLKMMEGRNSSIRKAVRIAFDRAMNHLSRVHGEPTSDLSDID

Peregrin = target: T2, Peregrin (Homo sapiens, UniProt P55201); experiment: Inhibition of human BRPF1 (627 to 740 residues) expressed in Escherichia coli BL21 after 1 hr by BROMOscan assay
T2 sequence (P55201 whole entry): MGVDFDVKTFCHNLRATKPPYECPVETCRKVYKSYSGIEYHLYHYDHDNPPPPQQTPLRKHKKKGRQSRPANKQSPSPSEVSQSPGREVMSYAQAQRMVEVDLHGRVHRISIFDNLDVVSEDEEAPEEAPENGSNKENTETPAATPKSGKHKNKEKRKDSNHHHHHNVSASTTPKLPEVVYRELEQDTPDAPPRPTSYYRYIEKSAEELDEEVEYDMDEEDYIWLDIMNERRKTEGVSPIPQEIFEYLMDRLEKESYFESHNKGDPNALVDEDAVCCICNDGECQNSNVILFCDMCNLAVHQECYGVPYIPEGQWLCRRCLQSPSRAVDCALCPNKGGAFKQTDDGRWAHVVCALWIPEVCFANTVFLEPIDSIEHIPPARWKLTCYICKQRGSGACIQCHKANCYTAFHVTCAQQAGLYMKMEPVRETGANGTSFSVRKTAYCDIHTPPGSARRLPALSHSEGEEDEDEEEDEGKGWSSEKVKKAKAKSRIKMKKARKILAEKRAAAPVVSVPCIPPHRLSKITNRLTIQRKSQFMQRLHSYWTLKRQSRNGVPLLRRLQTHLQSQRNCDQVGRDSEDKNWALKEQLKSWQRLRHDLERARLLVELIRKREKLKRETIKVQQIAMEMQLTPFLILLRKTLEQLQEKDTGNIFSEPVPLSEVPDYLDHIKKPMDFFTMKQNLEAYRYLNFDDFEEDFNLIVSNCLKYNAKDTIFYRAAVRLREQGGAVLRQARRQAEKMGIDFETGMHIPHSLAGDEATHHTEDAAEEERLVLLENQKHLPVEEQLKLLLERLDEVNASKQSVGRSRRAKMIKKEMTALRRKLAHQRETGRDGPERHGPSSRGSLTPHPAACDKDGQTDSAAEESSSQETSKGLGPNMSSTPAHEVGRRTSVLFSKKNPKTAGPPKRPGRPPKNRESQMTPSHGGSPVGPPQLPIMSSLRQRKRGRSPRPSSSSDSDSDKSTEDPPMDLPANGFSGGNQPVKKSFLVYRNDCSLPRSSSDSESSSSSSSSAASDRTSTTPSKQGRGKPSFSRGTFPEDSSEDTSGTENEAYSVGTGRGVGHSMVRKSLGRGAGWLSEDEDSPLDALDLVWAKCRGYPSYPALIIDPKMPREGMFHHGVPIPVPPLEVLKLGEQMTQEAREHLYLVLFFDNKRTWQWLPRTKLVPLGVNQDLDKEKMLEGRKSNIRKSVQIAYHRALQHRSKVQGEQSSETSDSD

Peregrin (Homo sapiens) = target: T3, Peregrin (Homo sapiens) (UniProt P55201)
T3 sequence (whole entry): T2 sequence (P55201 whole entry)
Description: Binding affinity to BRPF1 (unknown origin) assessed as change in melting temperature at 10 uM by differential scanning fluorimetry based thermal shift assay

[3] = target: T4, Bromodomain-containing protein 9 (Homo sapiens, UniProt Q9H8M2)
T4 sequence (Q9H8M2 whole entry): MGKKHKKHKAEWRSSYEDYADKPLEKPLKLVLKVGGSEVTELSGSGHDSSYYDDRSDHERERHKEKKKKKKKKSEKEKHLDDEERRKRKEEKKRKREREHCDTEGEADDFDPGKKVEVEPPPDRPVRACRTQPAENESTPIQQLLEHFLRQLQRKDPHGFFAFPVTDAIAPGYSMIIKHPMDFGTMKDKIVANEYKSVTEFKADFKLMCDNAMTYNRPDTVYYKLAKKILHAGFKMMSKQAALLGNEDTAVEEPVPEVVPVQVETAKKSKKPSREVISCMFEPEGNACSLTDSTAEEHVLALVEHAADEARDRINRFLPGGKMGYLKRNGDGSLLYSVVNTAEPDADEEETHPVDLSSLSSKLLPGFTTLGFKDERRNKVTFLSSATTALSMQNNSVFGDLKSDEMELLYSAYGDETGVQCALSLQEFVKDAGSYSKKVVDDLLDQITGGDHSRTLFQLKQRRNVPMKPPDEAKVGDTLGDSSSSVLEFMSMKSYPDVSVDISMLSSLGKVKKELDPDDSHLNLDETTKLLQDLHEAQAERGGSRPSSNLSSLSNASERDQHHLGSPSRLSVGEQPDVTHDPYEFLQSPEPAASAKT
Description: Inhibition of human BRD9 (130 to 259 residues) expressed in Escherichia coli BL21 after 1 hr by BROMOscan assay

Row | Compound | pIC50 [1] | pIC50 [2] | pIC50 (Peregrin) | ΔTm (Peregrin (Homo sapiens)) | pIC50 [3]
1 | Cn1c(=O)ccc2cc(S(=O)(=O)Nc3ccccc3)ccc21 | 4.43 | 5.11 | 6.00 | 3.5 °C | 5.01
2 | COc1cc(C#N)ccc1S(=O)(=O)Nc1ccc2c(c1)cc(C(C)C)c(=O)n2C |  | 5.48 | 6.77 |  | 5.03
3 | COc1cc(C#N)ccc1S(=O)(=O)Nc1ccc2c(c1)cc(C)c(=O)n2C | 5.43 | 7.34 | 8.51 | 12.3 °C | 6.28
